Series [1] deals with STAT3. Description: STAT3 phosphorylation by Wes capillary electrophoresis in activated RAW264.7 macrophages. It is filed as cell-based, murine. The following applies: 50 µM, 2 h, LPS and IFNγ stimulated. As for the experimental part: (§1) In RAW264.7 cells, inflammation was triggered with LPS (10 ng/mL, Sigma) and IFNγ (10 U/mL, R&Dsystems) for 2 h or 6 h, depending on the experiments. PBMC were exposed to LPS (10 ng/mL) and AHL for 24 h. For TAS2R38 inhibition experiments, cells were exposed to TAS2R38 allosteric inhibitor probenecid (1 mM, Sigma) for one hour before adding AHLs and the inflammatory cocktail, without changing the media.
(§2) RAW264.7 cells were scraped in lysis buffer (20 mM Tris- HCl, pH 7.4, 5 mM EDTA, 0.15 M NaCl, 1% Triton X-100, 0.5% sodium deoxycholate) supplemented with protease inhibitor cocktail (Complete Mini; Roche, Boulogne-Billancourt, France) and phosphatase inhibitor cocktail (PhosSTOP, Sigma-Aldrich). Protein concentrations were determined using the BC Assay (Uptima/Interchim). Wes™ analyses (capillary electrophoresis system; ProteinSimple, San Jose, CA) were performed according to the manufacturer’s recommendations, and adequate protein concentrations and antibody dilutions were determined in preliminary assays to allow optimal quantitative conditions. […] Data were analysed using Compass for SW3.1 software (ProteinSimple).

For series [2], the system named is JAK2. The experiment in a line: JAK2 phosphorylation by Wes capillary electrophoresis in activated RAW264.7 macrophages. The following applies: 50 µM, 2 h, LPS and IFNγ stimulated. The format is cell-based, murine. As for the experimental part:
as §1, §2

The test system of series [3] is RAW264.7 macrophages. The experiment in a line: Cytokine mRNA levels by RT-qPCR in RAW264.7 macrophages stimulated with LPS and IFNγ. It is filed as cell-based, murine. The following applies: 50 µM, 2 h, vs control. The protocol:
RAW264.7 murine macrophage cells (ATCC, Manassas, Virginia, USA) were cultured between passage 12 and 25 in Dulbecco’s modified Eagle’s medium supplemented with 10% heat-inactivated fetal calf serum and 1% L-glutamine (ThermoFisher Scientific). The macrophages were seeded at 35,000 cells per well in 12-well plates (Falcon) for ELISA experiments or 110,000 cells per well in 6-well plates (Falcon) for cell lysates, upon reaching 80–90% confluence after 3-day culture. Cells were maintained at 37 °C with 5% CO2/air atmosphere and the media were changed every other day.
Cells were exposed to 3-oxo-C12:2-HSL (synthesized as previously described[17]) or DMSO 0.1% as a control for different durations depending on the experiment, in the presence of the lactonase inhibitor 2-hydroxyquinoline (100 µM, Sigma-Aldrich), in order to limit the hydrolysis of the AHL lactone ring, as described previously[17],[18].
as §1
Total RNA was extracted from RAW264.7 cells using TRIzol (Invitrogen) according to the manufacturer's instructions. Reverse Transcription (RT) was performed with 1 μg RNA using LunaScript® RT SuperMix Kit (NewEngland Biolabs). Semi-quantitative real-time PCR was performed with the Mx3000P Stratagene system using SYBR Green (Applied Biosystems) according to the manufacturer's procedures. Cyclophilin was used as the reference gene. After amplification, Ct were determined.
A general note: Quantitative PCR measures a nucleic acid by following its amplification.

Series [4] deals with PBMC. Description: TNFα secretion by ELISA in PBMC stimulated with LPS. It is filed as cell-based, human. The following applies: LPS 10 ng/mL, 24 h, dose-dependent between 25 to 100 µM. As for the experimental part: Peripheral Blood Mononuclear Cells (PBMC) were extracted from whole blood of anonymous donors and collected by Etablissement Français du Sang of Paris, France.
PBMC were cultured in Roswell Park Memorial Institute medium (ThermoFisher Scientific) with 10% heat-inactivated fetal calf serum, 1% L-glutamine, 1% non-essential amino acids, 1% sodium pyruvate, penicillin (100 IU/mL), and streptomycin (100 µg/mL). Peripheral blood was harvested in EDTA tubes, blood was diluted with PBS 1:1, layered over Histopaque-1077® (Sigma) and centrifuged for 20 min at 400g at room temperature. Extracted PBMC were washed twice with sterile PBS then centrifuged at 300g for 5 min and resuspended in complete medium. For experiments, cells were seeded at 300,000 cells per well in 200 µL of medium in 96-well plates (ThermoFisher Scientific).
Cells were exposed to 3-oxo-C12:2-HSL (synthesized as previously described[17]) or DMSO 0.1% as a control for different durations depending on the experiment, in the presence of the lactonase inhibitor 2-hydroxyquinoline (100 µM, Sigma-Aldrich), in order to limit the hydrolysis of the AHL lactone ring, as described previously[17],[18]. […]
At the end of cell treatment, the medium was centrifuged at 300g for 5 min at 4 °C. […] Absorbance was measured by a spectrometer (FLUOstar Omega; BMG Labtech) at 450 nm and the absorbance at 540 nm was subtracted.
A general note: An ELISA detects its analyte on a solid surface through an enzyme-linked reagent.

Series [5] relates to RAW264.7 cells and PBMC. Description: Cytotoxicity by lactate dehydrogenase release. The format is cell-based. The following applies: doses of AHL used in all experiments. The protocol: Release of lactate dehydrogenase into the medium was measured to assess cellular toxicity. LDH concentration was measured using the Cytotoxicity Detection Kit (Roche, Boulogne-Billancourt, France) according to the manufacturer’s instructions. The media were centrifuged 5 min at 250g to remove any cells. 50 µL of reaction mixture was added to 50 µL of media supernatant in 96-well plates. After 10 min at room temperature, 25 µL of stop solution was added. Absorbance at 490 nm was determined with a microplate spectrometer (FLUOstar Omega; BMG Labtech). Results are expressed as absorbance arbitrary units.

Series [6] deals with RAW264.7 cells. Description: Intracellular calcium assay (Fluo-4) in RAW264.7 cells. It is filed as cell-based, murine. The following applies: 1000 µM. As for the experimental part: RAW264.7 cells were seeded in black, clear-bottom 96-well plates (Costar) at 20,000 cells per well. The next day, release of intracellular Ca^2+ was measured using Fluo-4 (Fluo-4 Direct Calcium Assay; Life Technologies) according to the manufacturer’s instructions. Medium was discarded and 100 µL of 1 X Fluo-4 dye was incubated at 37 °C for 1 h in 5% CO2, protected from light. Then, basal fluorescence was measured using a fluorospectrometer (FLUOstar Omega; BMG Labtech), excitation at 485 nm and emission at 520 nm. Molecules of interest were then added with an electronic pipette; thapsigargin (10 µM, Sigma) as a positive control, 3-oxo-C12:2-HSL (1000 µM) or DMSO 0.5%; with 8 replicates per conditions for every experiment. The fluorescence signal was immediately measured every 80 s for 2 h. Results are expressed as a ratio of the fluorescence x times over the basal fluorescence (F/F0).

This is an account of results in publication PMC9177545, “3-oxo-C12:2-HSL, quorum sensing molecule from human intestinal microbiota, inhibits pro-inflammatory pathways in immune cells via bitter taste receptors” (Scientific Reports, 2022).

With 3-oxo-C12:2-HSL, the “phosphorylation level of STAT3 vs activated cells without AHL” value in series [1] is on record as “not significantly altered”. The “phosphorylation level of JAK2 vs activated cells without AHL” value in series [2] is “not significantly altered”. Besides, in series [3], the “IL-10 expression (Il10 mRNA)” value was “strongly increased”, the “Il1b mRNA level” value is given as “reduced” and the “Tnf mRNA level” value is “reduced”. The TNFα secretion result in series [4] is “strongly decreased”. Further, the “cytotoxicity, lactate dehydrogenase release compared to the control” value in series [5] is “no significant difference”. For the same substance, the “slope of the calcium response curve vs control condition” value in series [6] (Fluo-4 F/F0, two hours) was “significantly higher”. In series [6] (basal state, Fluo-4, two hours, control DMSO 0.5%), the “intracellular calcium level compared with the control” value is recorded as “increase”.
